Several values for one entry are separate records, joined by “and”; a condition that tells them apart may be missing. Identical values can stand only once. Records with an inconclusive call do not appear.
System: BDF1 mice, s.c. Lewis lung carcinoma, T/C %
Assay: NCI In Vivo Anticancer Drug Screen. Data for tumor model Lewis Lung Carcinoma (subcutaneous) in B6D2F1 (BDF1) mice
Method in brief: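 Antitumor effect in vivo is scored from survival or tumor burden, reported as treated relative to vehicle controls.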

[1] = endpoint: mean tumor weight, dose: 5.0 mg/kg/injection, schedule: Q01DX011 (ip), vehicle: saline, higher = larger tumour
[2] = endpoint: mean tumor weight, dose: 10.0 mg/kg/injection, schedule: Q01DX011 (ip), vehicle: saline, higher = larger tumour
[3] = endpoint: median survival time, dose: 0.5 mg/kg/injection, schedule: Q01DX009 (ip), vehicle: saline with Tween-80, higher = longer survival
[4] = endpoint: median survival time, dose: 1.0 mg/kg/injection, schedule: Q01DX009 (ip), vehicle: saline with Tween-80, higher = longer survival
[5] = endpoint: mean tumor weight, dose: 25.0 mg/kg/injection, schedule: Q01DX011 (ip), vehicle: saline, higher = larger tumour
[6] = endpoint: mean tumor weight, dose: 50.0 mg/kg/injection, schedule: Q01DX011 (ip), vehicle: saline, higher = larger tumour
[7] = endpoint: mean tumor weight, dose: 100.0 mg/kg/injection, schedule: Q01DX011 (ip), vehicle: saline, higher = larger tumour

## O=c1[nH]cc(F)c(=O)[nH]1
[1]
  T/C: 54 % of control
[2]
  T/C: 68 % of control
endpoint: mean tumor weight, dose: 13.5 mg/kg/injection, schedule: Q01DX011 (ip), vehicle: water, higher = larger tumour
  T/C: 51 % of control
endpoint: mean tumor weight, dose: 20.0 mg/kg/injection, schedule: Q01DX011 (ip), vehicle: saline, higher = larger tumour
  T/C: 35 % of control
endpoint: mean tumor weight, dose: 27.0 mg/kg/injection, schedule: Q01DX011 (ip), vehicle: water, higher = larger tumour
  T/C: 6 % of control
endpoint: median survival time, dose: 5.0 mg/kg/injection, schedule: Q01DX009 (ip), vehicle: Klucel (hydroxypropylcellulose) (HPC), higher = longer survival
  T/C: 86 % of control
endpoint: median survival time, dose: 5.0 mg/kg/injection, schedule: Q01DX009 (ip), vehicle: saline with Tween-80, higher = longer survival
  T/C: 97 % of control
endpoint: median survival time, dose: 5.0 mg/kg/injection, schedule: Q01DX009 (ip), vehicle: saline, higher = longer survival
  T/C: 108 % of control
endpoint: median survival time, dose: 10.0 mg/kg/injection, schedule: Q01DX009 (ip), vehicle: Klucel (hydroxypropylcellulose) (HPC), higher = longer survival
  T/C: 97 % of control and 98 % of control
endpoint: median survival time, dose: 10.0 mg/kg/injection, schedule: Q01DX009 (ip), vehicle: saline with Tween-80, higher = longer survival
  T/C: 86 % of control
endpoint: median survival time, dose: 10.0 mg/kg/injection, schedule: Q01DX009 (ip), vehicle: saline, higher = longer survival
  T/C: 118 % of control
endpoint: median survival time, dose: 16.2 mg/kg/injection, schedule: Q04DX002 (ip), vehicle: saline, higher = longer survival
  T/C: 97 % of control and 102 % of control
endpoint: median survival time, dose: 20.0 mg/kg/injection, schedule: Q01DX009 (ip), vehicle: Klucel (hydroxypropylcellulose) (HPC), higher = longer survival
  T/C: 111 % of control
endpoint: median survival time, dose: 20.0 mg/kg/injection, schedule: Q01DX009 (ip), vehicle: saline with Tween-80, higher = longer survival
  T/C: 97 % of control and 112 % of control
endpoint: median survival time, dose: 21.6 mg/kg/injection, schedule: Q04DX004 (ip), vehicle: saline, higher = longer survival
  T/C: 124 % of control
endpoint: median survival time, dose: 23.3 mg/kg/injection, schedule: Q04DX003 (iv), vehicle: alkali diluted with saline, higher = longer survival
  T/C: 157 % of control
endpoint: median survival time, dose: 27.0 mg/kg/injection, schedule: Q04DX002 (ip), vehicle: saline, higher = longer survival
  T/C: 100 % of control and 102 % of control
endpoint: median survival time, dose: 36.0 mg/kg/injection, schedule: Q04DX004 (ip), vehicle: saline, higher = longer survival
  T/C: 115 % of control
endpoint: median survival time, dose: 40.0 mg/kg/injection, schedule: Q01DX009 (ip), vehicle: Klucel (hydroxypropylcellulose) (HPC), higher = longer survival
  T/C: 86 % of control
endpoint: median survival time, dose: 40.4 mg/kg/injection, schedule: Q04DX003 (iv), vehicle: alkali diluted with saline, higher = longer survival
  T/C: 201 % of control
endpoint: median survival time, dose: 45.0 mg/kg/injection, schedule: Q04DX002 (ip), vehicle: saline, higher = longer survival
  T/C: 96 % of control and 97 % of control
endpoint: median survival time, dose: 70.0 mg/kg/injection, schedule: Q04DX003 (iv), vehicle: alkali diluted with saline, higher = longer survival
  T/C: 98 % of control
endpoint: median survival time, dose: 75.0 mg/kg/injection, schedule: Q04DX002 (ip), vehicle: saline, higher = longer survival
  T/C: 105 % of control
endpoint: median survival time, dose: 100.0 mg/kg/injection, schedule: Q04DX004 (ip), vehicle: saline, higher = longer survival
  T/C: 64 % of control
endpoint: median survival time, dose: 121.0 mg/kg/injection, schedule: Q04DX003 (iv), vehicle: alkali diluted with saline, higher = longer survival
  T/C: 95 % of control
endpoint: median survival time, dose: 125.0 mg/kg/injection, schedule: Q04DX002 (ip), vehicle: saline, higher = longer survival
  T/C: 109 % of control
endpoint: median tumor weight (est.), dose: 5.0 mg/kg/injection, schedule: Q01DX009 (ip), vehicle: Klucel (hydroxypropylcellulose) (HPC), higher = larger tumour
  T/C: 102 % of control
endpoint: median tumor weight (est.), dose: 5.0 mg/kg/injection, schedule: Q01DX009 (ip), vehicle: saline with Tween-80, higher = larger tumour
  T/C: 97 % of control
endpoint: median tumor weight (est.), dose: 10.0 mg/kg/injection, schedule: Q01DX009 (ip), vehicle: Klucel (hydroxypropylcellulose) (HPC), higher = larger tumour
  T/C: 91 % of control
endpoint: median tumor weight (est.), dose: 10.0 mg/kg/injection, schedule: Q01DX009 (ip), vehicle: saline with Tween-80, higher = larger tumour
  T/C: 93 % of control
endpoint: median tumor weight (est.), dose: 20.0 mg/kg/injection, schedule: Q01DX009 (ip), vehicle: Klucel (hydroxypropylcellulose) (HPC), higher = larger tumour
  T/C: 73 % of control
endpoint: median tumor weight (est.), dose: 20.0 mg/kg/injection, schedule: Q01DX009 (ip), vehicle: saline with Tween-80, higher = larger tumour
  T/C: 53 % of control

## CN(Cc1cnc2nc(N)nc(N)c2n1)c1ccc(C(=O)N[C@@H](CCC(=O)O)C(=O)O)cc1
endpoint: mean tumor weight, dose: 0.5 mg/kg/injection, schedule: Q01DX011 (ip), vehicle: alkali diluted with saline, higher = larger tumour
  T/C: 91 % of control
endpoint: mean tumor weight, dose: 0.5 mg/kg/injection, schedule: Q01DX011 (ip), vehicle: carboxymethylcellulose (CMC), higher = larger tumour
  T/C: 97 % of control
endpoint: mean tumor weight, dose: 0.75 mg/kg/injection, schedule: Q01DX011 (ip), vehicle: alkali diluted with saline, higher = larger tumour
  T/C: 111 % of control
endpoint: mean tumor weight, dose: 1.0 mg/kg/injection, schedule: Q01DX011 (ip), vehicle: alkali diluted with saline, higher = larger tumour
  T/C: 83 % of control
endpoint: mean tumor weight, dose: 1.0 mg/kg/injection, schedule: Q01DX011 (ip), vehicle: carboxymethylcellulose (CMC), higher = larger tumour
  T/C: 91 % of control
endpoint: mean tumor weight, dose: 1.5 mg/kg/injection, schedule: Q01DX011 (ip), vehicle: alkali diluted with saline, higher = larger tumour
  T/C: 93 % of control
endpoint: mean tumor weight, dose: 2.0 mg/kg/injection, schedule: Q01DX011 (ip), vehicle: alkali diluted with saline, higher = larger tumour
  T/C: 72 % of control
endpoint: mean tumor weight, dose: 2.0 mg/kg/injection, schedule: Q01DX011 (ip), vehicle: carboxymethylcellulose (CMC), higher = larger tumour
  T/C: 90 % of control
endpoint: mean tumor weight, dose: 4.0 mg/kg/injection, schedule: Q01DX011 (ip), vehicle: carboxymethylcellulose (CMC), higher = larger tumour
  T/C: 25 % of control
endpoint: median survival time, dose: 0.5 mg/kg/injection, schedule: Q01DX009 (ip), vehicle: Klucel (hydroxypropylcellulose) (HPC), higher = longer survival
  T/C: 107 % of control
[3]
  T/C: 89 % of control and 100 % of control
endpoint: median survival time, dose: 1.0 mg/kg/injection, schedule: Q01DX009 (ip), vehicle: Klucel (hydroxypropylcellulose) (HPC), higher = longer survival
  T/C: 112 % of control
[4]
  T/C: 93 % of control
endpoint: median survival time, dose: 1.0 mg/kg/injection, schedule: Q01DX009 (ip), vehicle: saline, higher = longer survival
  T/C: 100 % of control
endpoint: median survival time, dose: 2.0 mg/kg/injection, schedule: Q01DX009 (ip), vehicle: saline, higher = longer survival
  T/C: 102 % of control
endpoint: median survival time, dose: 4.0 mg/kg/injection, schedule: Q01DX009 (ip), vehicle: Klucel (hydroxypropylcellulose) (HPC), higher = longer survival
  T/C: 121 % of control
endpoint: median tumor weight (est.), dose: 0.5 mg/kg/injection, schedule: Q01DX009 (ip), vehicle: saline with Tween-80, higher = larger tumour
  T/C: 95 % of control
endpoint: median tumor weight (est.), dose: 1.0 mg/kg/injection, schedule: Q01DX009 (ip), vehicle: saline with Tween-80, higher = larger tumour
  T/C: 86 % of control
endpoint: median tumor weight (est.), dose: 1.4 mg/kg/injection, schedule: Q01DX011 (ip), vehicle: sodium bicarbonate, higher = larger tumour
  T/C: 99 % of control
endpoint: median tumor weight (est.), dose: 2.1 mg/kg/injection, schedule: Q01DX011 (ip), vehicle: sodium bicarbonate, higher = larger tumour
  T/C: 74 % of control

## Nc1ccccc1Br
endpoint: mean tumor weight, dose: 222.0 mg/kg/injection, schedule: Q01DX011 (ip), vehicle: other, higher = larger tumour
  T/C: 114 % of control
endpoint: mean tumor weight, dose: 333.0 mg/kg/injection, schedule: Q01DX011 (ip), vehicle: other, higher = larger tumour
  T/C: 102 % of control

## CCCCCC[C@@H](O)C/C=C\CCCCCCCC(=O)O
[5]
  T/C: 104 % of control
[6]
  T/C: 77 % of control
[7]
  T/C: 59 % of control

## NC(=S)N/N=C/c1ncccc1O
endpoint: mean tumor weight, dose: 6.25 mg/kg/injection, schedule: Q01DX011 (ip), vehicle: saline, higher = larger tumour
  T/C: 99 % of control
endpoint: mean tumor weight, dose: 12.5 mg/kg/injection, schedule: Q01DX011 (ip), vehicle: saline, higher = larger tumour
  T/C: 86 % of control
[5]
  T/C: 61 % of control
[6]
  T/C: 31 % of control
[7]
  T/C: 1 % of control

## CC1(C)C(CC(=O)O)CC1C(=O)O (stereo not given)
endpoint: mean tumor weight, dose: 166.0 mg/kg/injection, schedule: Q01DX011 (ip), vehicle: other, higher = larger tumour
  T/C: 78 % of control

## CC1OC(O[C@@H]2C=C3CC[C@@H]4[C@H](CC[C@]5(C)[C@@H](c6ccc(=O)oc6)CC[C@]45O)[C@@]3(C)CC2)C(O)C(O)C1O (stereo not given in full)
endpoint: mean tumor weight, dose: 1.25 mg/kg/injection, schedule: Q01DX011 (ip), vehicle: saline, higher = larger tumour
  T/C: 114 % of control
endpoint: mean tumor weight, dose: 2.5 mg/kg/injection, schedule: Q01DX011 (ip), vehicle: saline, higher = larger tumour
  T/C: 90 % of control
[1]
  T/C: 64 % of control
[2]
  T/C: 83 % of control

## COc1cc(C2c3cc4c(cc3CC3COC(=O)C32)OCO4)cc(OC)c1O (stereo not given)
[3]
  T/C: 104 % of control
[4]
  T/C: 101 % of control
endpoint: median survival time, dose: 2.0 mg/kg/injection, schedule: Q01DX009 (ip), vehicle: saline with Tween-80, higher = longer survival
  T/C: 107 % of control

## CC(=O)[C@H]1CC[C@H]2[C@@H]3C[C@H](C)C4=CC(=O)CC[C@]4(C)[C@H]3C(=O)C[C@]12C
endpoint: mean tumor weight (est.), dose: 100.0 mg/kg/injection, schedule: Q01DX009 (ip), vehicle: saline, higher = larger tumour
  T/C: 65 % of control
endpoint: mean tumor weight (est.), dose: 200.0 mg/kg/injection, schedule: Q01DX009 (ip), vehicle: saline, higher = larger tumour
  T/C: 35 % of control
endpoint: mean tumor weight (est.), dose: 400.0 mg/kg/injection, schedule: Q01DX009 (ip), vehicle: saline, higher = larger tumour
  T/C: 37 % of control
endpoint: mean tumor weight (est.), dose: 800.0 mg/kg/injection, schedule: Q01DX009 (ip), vehicle: saline, higher = larger tumour
  T/C: 60 % of control
endpoint: median survival time, dose: 100.0 mg/kg/injection, schedule: Q01DX009 (ip), vehicle: saline, higher = longer survival
  T/C: 103 % of control
endpoint: median survival time, dose: 200.0 mg/kg/injection, schedule: Q01DX009 (ip), vehicle: saline, higher = longer survival
  T/C: 110 % of control
endpoint: median survival time, dose: 400.0 mg/kg/injection, schedule: Q01DX009 (ip), vehicle: saline, higher = longer survival
  T/C: 113 % of control
endpoint: median survival time, dose: 800.0 mg/kg/injection, schedule: Q01DX009 (ip), vehicle: saline, higher = longer survival
  T/C: 100 % of control

## Cc1ccc(NC(=O)N(CCCl)N=O)cc1C
endpoint: median survival time, dose: 3.12 mg/kg/injection, schedule: Q01DX009 (ip), vehicle: Klucel (hydroxypropylcellulose) (HPC), higher = longer survival
  T/C: 112 % of control
endpoint: median survival time, dose: 6.25 mg/kg/injection, schedule: Q01DX009 (ip), vehicle: Klucel (hydroxypropylcellulose) (HPC), higher = longer survival
  T/C: 87 % of control

Reference: PubChem BioAssay AID270 (DTP/NCI, 2004)
